Test results published in patent publication US10945932B2, “Prebiotic oral care compositions containing carboxylic acids” (COLGATE-PALMOLIVE COMPANY, priority 2013, dated 2021).
Read-outs that look alike come from different tables or passages of the source.

Key:
[1] = tested on: Streptococcus sanguinis; assay: Biofilm growth assay in BHI, crystal violet; assay type: cell-based; details: S sanguinis, 25 μmol/ml
Protocol: (§1) Late exponential growth phase liquid cultures were prepared by transferring the respective bacterium from blood agar plates to BHI and overnight incubation at 37° C. in an anaerobic atmosphere for A. viscosus, V. parvula, F. nucleatum, P. gingivalis, P. intermedia, T. forsythia, A. naeslundii, and C. sputigena, and in a 5% CO2 environment for S. salivarius, S. sanguinis, S. mitis, A. actinomycetemcomitans, S. mutans, and S. gordonii. […] Additionally, for each bacterium tested, a background control, to correct for background staining, was added. This background control contained the bacterium tested and 0.03 weight % chlorhexidine, as an antiseptic. Plates were incubated as previously described. After 48 hrs the supernatant was removed from the wells of the plates. The wells were washed twice with 1×100 μL/PBS (phosphate buffered saline), fixed for 20 minutes with 96% vol. ethanol (96% vol. solution in water) and the biofilm retained at the bottom of the wells was stained with 1 weight % crystal violet (1 weight % solution in water). […] Quantification of the stained biofilm was performed by measuring the absorbance at 630 nm using a Multiskan Ascent microplate reader (Thermo Scientific).

[2] = tested on: Prevotella intermedia; assay: Biofilm growth assay in BHI, crystal violet; assay type: cell-based; details: P intermedia
Protocol: as §1

[3] = tested on: Streptococcus mutans; assay: Biofilm growth assay in BHI, crystal violet; assay type: cell-based; details: S mutans
Protocol: as §1

[4] = tested on: Actinomyces viscosus; assay: Biofilm growth assay in BHI, crystal violet; assay type: cell-based; details: A viscosus
Protocol: as §1

[5] = tested on: Fusobacterium nucleatum; assay: Biofilm growth assay in BHI, crystal violet; assay type: cell-based; details: F nucleatum
Protocol: as §1

[6] = tested on: Streptococcus gordonii; assay: Biofilm growth assay in BHI, crystal violet; assay type: cell-based; details: S gordonii
Protocol: as §1

[7] = tested on: Streptococcus salivarius; assay: Biofilm growth assay in BHI, crystal violet; assay type: cell-based; details: S salivarius
Protocol: as §1

[8] = tested on: Actinomyces viscosus; details: A viscosus, BHI
Protocol: (§2) Late exponential growth phase liquid cultures were prepared by transferring the respective bacterium from blood agar plates to BHI and overnight incubation at 37° C. in an anaerobic atmosphere for A. viscosus, V. parvula, F. nucleatum, P. gingivalis, P. intermedia, T forsythia, A. naeslundii, and C. sputigena, and in a 5% CO2 environment for S. salivarius, S. sanguinis, S. mitis, A. actinomycetemcomitans, S. mutans, S. sobrinus and S. gordonii. Overnight cultures were transferred to BHI and adjusted to a concentration of 1×10^7 CFU/ml (colony forming units per ml) by measuring the optical density at 600 nm (OD600) (BioRad SmartSpec 3000). For each strain, 200 μl of the bacterial suspension was added to a 96-well plate containing 20 μl of the respective carboxylic acids. Final concentrations of the carboxylic acids were set to 5, 10, 20 and 25 μmol/ml. […] Plates were incubated as previously described.
(§3) For each combination of bacterium/carboxylic acid, and for each of their respective controls (i.e. the particular bacterium in the nutritionally rich medium with no carboxylic acid), the optical density was measured at 630 nm (OD630) at 0 h, 24 h and 48 h (Thermo Scientific Multiskan Ascent). Additionally, the OD630 for combinations of bacterium/carboxylic acid grown in a 5% CO2 environment were also measured every hour between 0 h and 9 h.
(§4) The experiment was carried out on three different days (thus providing 3 biological replicas) and on each day the experiment was carried out in quadruple (thus providing 4 technical replicas) for each combination of bacterium with carboxylic acid and for each control. For each day and for each combination, the average (mean) of the values obtained (as detailed above) for the four technical replicas was calculated to provide a single value for each combination on each day.

[9] = tested on: beneficial oral bacteria and pathogenic oral bacteria; details: over 48 hours, threshold value of 1.25
Source text: The beneficial oral bacteria tested were Streptococcus mitis, Streptococcus salivarius, Streptococcus sanguinis, Actinomyces viscosus, Streptococcus gordonii, Capnocytophaga sputigena, Actinomyces naeslundii and Veillonella parvula. The pathogenic oral bacteria tested were Streptococcus mutans, Prevotella intermedia, Porphyromonas gingivalis, Fusobacterium nucleatum, Tannerella forsythia, Aggregatibacter actinomycetemcomitans and Streptococcus sobrinus.
as §2, §3, §4
This value was selected in order to exclude low-stimulating metabolites and avoid false positive results.

[10] = tested on: Aggregatibacter actinomycetemcomitans; details: A actinomycetemcomitans, BHI
Protocol: as §2, §3, §4

[11] = tested on: Fusobacterium nucleatum; details: F nucleatum, BHI
Protocol: as §2, §3, §4

[12] = tested on: beneficial oral bacteria and pathogenic oral bacteria; assay: Biofilm growth, prebiotic effect over the whole panel; assay type: cell-based; details: 25 μmol/ml; 48 hours; threshold value of 1.6
Protocol: as §1

[13] = tested on: Tannerella forsythia; details: T forsythia, BHI
Protocol: as §2, §3, §4

SMILES: N[C@@H](CC(=O)O)C(=O)O [L-aspartic acid]
- biofilm growth, OD at 630 nm (crystal violet) at 48 hrs divided by OD of control (control = 1) [1]: 2.0560
- biofilm growth, OD at 630 nm (crystal violet) at 48 hrs divided by OD of control (control = 1) ([2]; 5 μmol/ml): 1.4322
- biofilm growth, OD at 630 nm (crystal violet) at 48 hrs divided by OD of control (control = 1) ([2]; 10 μmol/ml): 1.6018
- biofilm growth, OD at 630 nm (crystal violet) at 48 hrs divided by OD of control (control = 1) ([2]; 20 μmol/ml): 1.6295
- biofilm growth, OD at 630 nm (crystal violet) at 48 hrs divided by OD of control (control = 1) ([2]; 25 μmol/ml): 1.5442
- biofilm growth, OD at 630 nm (crystal violet) at 48 hrs divided by OD of control (control = 1) ([3]; 5 μmol/ml): 0.0000
- biofilm growth, OD at 630 nm (crystal violet) at 48 hrs divided by OD of control (control = 1) ([3]; 10 μmol/ml): 0.0000
- biofilm growth, OD at 630 nm (crystal violet) at 48 hrs divided by OD of control (control = 1) ([3]; 20 μmol/ml): 0.1923
- biofilm growth, OD at 630 nm (crystal violet) at 48 hrs divided by OD of control (control = 1) ([3]; 25 μmol/ml): 0.0000
- biofilm growth, OD at 630 nm (crystal violet) at 48 hrs divided by OD of control (control = 1) ([4]; 5 μmol/ml): 0.5576
- biofilm growth, OD at 630 nm (crystal violet) at 48 hrs divided by OD of control (control = 1) ([4]; 10 μmol/ml): 0.5650
- biofilm growth, OD at 630 nm (crystal violet) at 48 hrs divided by OD of control (control = 1) ([4]; 20 μmol/ml): 0.5834
- biofilm growth, OD at 630 nm (crystal violet) at 48 hrs divided by OD of control (control = 1) ([4]; 25 μmol/ml): 0.5289
- biofilm growth, OD at 630 nm (crystal violet) at 48 hrs divided by OD of control (control = 1) ([5]; 5 μmol/ml): 1.2145
- biofilm growth, OD at 630 nm (crystal violet) at 48 hrs divided by OD of control (control = 1) ([5]; 10 μmol/ml): 0.9710
- biofilm growth, OD at 630 nm (crystal violet) at 48 hrs divided by OD of control (control = 1) ([5]; 20 μmol/ml): 0.9621
- biofilm growth, OD at 630 nm (crystal violet) at 48 hrs divided by OD of control (control = 1) ([5]; 25 μmol/ml): 0.8549
- biofilm growth, OD at 630 nm (crystal violet) at 48 hrs divided by OD of control (control = 1) ([6]; 5 μmol/ml): 1.3455
- biofilm growth, OD at 630 nm (crystal violet) at 48 hrs divided by OD of control (control = 1) ([6]; 10 μmol/ml): 1.6702
- biofilm growth, OD at 630 nm (crystal violet) at 48 hrs divided by OD of control (control = 1) ([6]; 20 μmol/ml): 2.1065
- biofilm growth, OD at 630 nm (crystal violet) at 48 hrs divided by OD of control (control = 1) ([6]; 25 μmol/ml): 2.2320
- biofilm growth, OD at 630 nm (crystal violet) at 48 hrs divided by OD of control (control = 1) ([7]; 5 μmol/ml): 1.4152
- biofilm growth, OD at 630 nm (crystal violet) at 48 hrs divided by OD of control (control = 1) ([7]; 10 μmol/ml): 1.9207
- biofilm growth, OD at 630 nm (crystal violet) at 48 hrs divided by OD of control (control = 1) ([7]; 20 μmol/ml): 2.4799
- biofilm growth, OD at 630 nm (crystal violet) at 48 hrs divided by OD of control (control = 1) ([7]; 25 μmol/ml): 3.0682
- extent of growth, maximal OD630 over 48 hr divided by maximal OD of control (control = 1) ([8]; 5 μmol/ml): 0.6862
- extent of growth, maximal OD630 over 48 hr divided by maximal OD of control (control = 1) ([8]; 10 μmol/ml): 0.6163
- extent of growth, maximal OD630 over 48 hr divided by maximal OD of control (control = 1) ([8]; 20 μmol/ml): 0.5787
- extent of growth, maximal OD630 over 48 hr divided by maximal OD of control (control = 1) ([8]; 25 μmol/ml): 0.5023
- prebiotic effect (extent of growth) ([9]; 10 μmol/ml): exhibited prebiotic effects
- prebiotic effect (extent of growth) ([9]; 20 μmol/ml): exhibited prebiotic effects
- extent of growth, maximal OD630 over 48 hr divided by maximal OD of control (control = 1) ([10]; 5 μmol/ml): 0.7612
- extent of growth, maximal OD630 over 48 hr divided by maximal OD of control (control = 1) ([10]; 10 μmol/ml): 0.7493
- extent of growth, maximal OD630 over 48 hr divided by maximal OD of control (control = 1) ([10]; 20 μmol/ml): 0.6806
- extent of growth, maximal OD630 over 48 hr divided by maximal OD of control (control = 1) ([10]; 25 μmol/ml): 0.6885
- extent of growth, maximal OD630 over 48 hr divided by maximal OD of control (control = 1) ([11]; 5 μmol/ml): 0.7922
- extent of growth, maximal OD630 over 48 hr divided by maximal OD of control (control = 1) ([11]; 10 μmol/ml): 0.7973
- extent of growth, maximal OD630 over 48 hr divided by maximal OD of control (control = 1) ([11]; 20 μmol/ml): 0.8395
- extent of growth, maximal OD630 over 48 hr divided by maximal OD of control (control = 1) ([11]; 25 μmol/ml): 0.8720
- prebiotic effect (biofilm growth) [12]: exhibited prebiotic effects
- extent of growth, maximal OD630 over 48 hr divided by maximal OD of control (control = 1) ([13]; 5 μmol/ml): 0.9947
- extent of growth, maximal OD630 over 48 hr divided by maximal OD of control (control = 1) ([13]; 10 μmol/ml): 0.9717
- extent of growth, maximal OD630 over 48 hr divided by maximal OD of control (control = 1) ([13]; 20 μmol/ml): 1.0111
- extent of growth, maximal OD630 over 48 hr divided by maximal OD of control (control = 1) ([13]; 25 μmol/ml): 0.9935
